The values below come from patent publication US9957268B2, “1H-pyrrolo[2,3,c]pyridin-7(6H)-ones and pyrazolo[3,4-c]pyridin-7(6H)-ones as inhibitors of BET proteins” (Incyte Corporation, priority 2014, dated 2018).

The target of one assay is BRD4-BD2 (Homo sapiens (Human), UniProt O60885). Kind of assay: BRD4 AlphaScreen assay (BRD4-BD2). To be noted: biotin-labeled tetra-acetylated histone H4 peptide. It is filed as binding. As for the experimental part: (§1) BRD4-BD1 and BRD4-BD2 assays were conducted in white 384-well polystyrene plate in a final volume of 40 μL for BD1 and 60 μL for BD2. Inhibitors were first serially diluted in DMSO and added to the plate wells before the addition of other reaction components. The final concentration of DMSO in the assay was 1.25% (BD1) and 0.83% (BD2). The assays were carried out at room temperature in the assay buffer (50 mM Tris-HCl, pH 7.5, 0.01% Tween-20, 0.01% BSA, 5 mM DTT), containing 50 nM Biotin-labeled tetra-acetylated histone H4 peptide (H4Ac4) and BRD4-BD1 or BRD4-BD2 protein at concentration less than 1 nM. The incubation for 75 min. was followed by the addition of 20 μL of assay buffer supplemented with Streptavidin donor beads (PerkinElmer 6760002) and GSH Acceptor beads (PerkinElmer-AL109C) at final concentration 2-4 μg/mL under reduced light. After plate sealing, the plate was incubated in the dark at room temperature for 75 min. before reading on a PHERAstar FS plate reader (BMG Labtech). IC50 determination was performed by fitting the curve of percent control activity versus the log of the inhibitor concentration using the GraphPad Prism 5.0 software.
A general note: Bead proximity is the source of the signal in Alpha formats.

The target in the next assay is BRD4-BD1 (Homo sapiens (Human), UniProt O60885). Put plainly: BRD4 AlphaScreen assay (BRD4-BD1). It is filed as binding. Conditions: biotin-labeled tetra-acetylated histone H4 peptide. As for the experimental part: as §1

What is called IC50 is the concentration needed to halve the response being measured. Read a low IC50 as greater potency.

With `COc1cc2c(c(-c3cn(C)c(=O)c4[nH]ccc34)c1)OC(C(C)C)C(=O)N2` (single isomer, unassigned) [Example 9A, 2-isopropyl-6-methoxy-8-(6-methyl-7-oxo-6,7-dihydro-1H-pyrrolo[2,3-c]pyridin-4-yl)-2H-1,4-benzoxazin-3(4H)-one], the IC50 against BRD4-BD2 and on BRD4-BD1 was at most 100 nM in each case.

For the compound `COc1cc2c(c(-c3cn(C)c(=O)c4[nH]ccc34)c1)OC(C(C)C)C(=O)N2` (single isomer, unassigned) [Example 9B, 2-isopropyl-6-methoxy-8-(6-methyl-7-oxo-6,7-dihydro-1H-pyrrolo[2,3-c]pyridin-4-yl)-2H-1,4-benzoxazin-3(4H)-one], the IC50 on BRD4-BD2 and against BRD4-BD1 was at most 100 nM in each case.

For `COc1cc2c(c(-c3cn(C)c(=O)c4[nH]ccc34)c1)OC(c1ccccc1)C(=O)N2` (single isomer, unassigned) [Example 24A, 6-methoxy-8-(6-methyl-7-oxo-6,7-dihydro-1H-pyrrolo[2,3-c]pyridin-4-yl)-2-phenyl-2H-1,4-benzoxazin-3(4H)-one], the IC50 against BRD4-BD2 and at BRD4-BD1 was at most 100 nM in each case.

With `COc1cc2c(c(-c3cn(C)c(=O)c4[nH]ccc34)c1)OC(c1ccccc1)C(=O)N2` (single isomer, unassigned) [Example 24B, 6-methoxy-8-(6-methyl-7-oxo-6,7-dihydro-1H-pyrrolo[2,3-c]pyridin-4-yl)-2-phenyl-2H-1,4-benzoxazin-3(4H)-one], the IC50 at BRD4-BD2 and on BRD4-BD1 was at most 100 nM throughout.

Consider `COc1cc2c(c(-c3cn(C)c(=O)c4[nH]ccc34)c1)OC(C1CCCC1)C(=O)N2` (single isomer, unassigned) [Example 35A, 2-Cyclopentyl-6-methoxy-8-(6-methyl-7-oxo-6,7-dihydro-1H-pyrrolo[2,3-c]pyridin-4-yl)-2H-1,4-benzoxazin-3(4H)-one], for which the IC50 at BRD4-BD2 and at BRD4-BD1 was at most 100 nM throughout.

As for `COc1cc2c(c(-c3cn(C)c(=O)c4[nH]ccc34)c1)OC(C1CCCC1)C(=O)N2` (single isomer, unassigned) [Example 35B, 2-Cyclopentyl-6-methoxy-8-(6-methyl-7-oxo-6,7-dihydro-1H-pyrrolo[2,3-c]pyridin-4-yl)-2H-1,4-benzoxazin-3(4H)-one], the IC50 at BRD4-BD2 and against BRD4-BD1 was at most 100 nM each time.

Take `COc1cc2c(c(-c3cn(C)c(=O)c4[nH]ncc34)c1)OC(C1CCCC1)C(=O)N2` (single isomer, unassigned) [Example 42A, 2-cyclopentyl-6-methoxy-8-(6-methyl-7-oxo-6,7-dihydro-1H-pyrazolo[3,4-c]pyridin-4-yl)-2H-1,4-benzoxazin-3(4H)-one]: the IC50 against BRD4-BD2 and against BRD4-BD1 was at most 100 nM throughout.

Regarding `COc1cc2c(c(-c3cn(C)c(=O)c4[nH]ncc34)c1)OC(C1CCCC1)C(=O)N2` (single isomer, unassigned) [Example 42B, 2-cyclopentyl-6-methoxy-8-(6-methyl-7-oxo-6,7-dihydro-1H-pyrazolo[3,4-c]pyridin-4-yl)-2H-1,4-benzoxazin-3(4H)-one], the IC50 against BRD4-BD2 was at most 100 nM.

`CC(C)C1Oc2c(cc(S(C)(=O)=O)cc2-c2cn(C)c(=O)c3[nH]ccc23)NC1=O` (single isomer, unassigned) [Example 44A, 2-isopropyl-8-(6-methyl-7-oxo-6,7-dihydro-1H-pyrrolo[2,3-c]pyridin-4-yl)-6-(methylsulfonyl)-2H-1,4-benzoxazin-3(4H)-one]: the IC50 at BRD4-BD2 and against BRD4-BD1 was at most 100 nM throughout.

As for `CC(C)C1Oc2c(cc(S(C)(=O)=O)cc2-c2cn(C)c(=O)c3[nH]ccc23)NC1=O` (single isomer, unassigned) [Example 44B, 2-isopropyl-8-(6-methyl-7-oxo-6,7-dihydro-1H-pyrrolo[2,3-c]pyridin-4-yl)-6-(methylsulfonyl)-2H-1,4-benzoxazin-3(4H)-one], the IC50 at BRD4-BD2 and against BRD4-BD1 was at most 100 nM each time.

In the case of `CC(C)C1Oc2c(-c3cn(C)c(=O)c4[nH]ccc34)cc(S(C)(=O)=O)cc2N(C)C1=O` (single isomer, unassigned) [Example 47A, 2-isopropyl-4-methyl-8-(6-methyl-7-oxo-6,7-dihydro-1H-pyrrolo[2,3-c]pyridin-4-yl)-6-(methylsulfonyl)-2H-1,4-benzoxazin-3(4H)-one], the IC50 at BRD4-BD2 and against BRD4-BD1 was at most 100 nM in each case.

For `CC(C)C1Oc2c(-c3cn(C)c(=O)c4[nH]ccc34)cc(S(C)(=O)=O)cc2N(C)C1=O` (single isomer, unassigned) [Example 47B, 2-isopropyl-4-methyl-8-(6-methyl-7-oxo-6,7-dihydro-1H-pyrrolo[2,3-c]pyridin-4-yl)-6-(methylsulfonyl)-2H-1,4-benzoxazin-3(4H)-one], the IC50 against BRD4-BD2 and against BRD4-BD1 was at most 100 nM throughout.

Take `CC(O)c1cc(-c2cn(C)c(=O)c3[nH]ccc23)c2c(c1)N(C)C(=O)C(C)(C)O2` (single isomer, unassigned) [Example 83A, 6-(1-hydroxyethyl)-2,2,4-trimethyl-8-(6-methyl-7-oxo-6,7-dihydro-1H-pyrrolo[2,3-c]pyridin-4-yl)-2H-1,4-benzoxazin-3(4H)-one]: the IC50 on BRD4-BD2 and against BRD4-BD1 was at most 100 nM in each case.

For `CC(O)c1cc(-c2cn(C)c(=O)c3[nH]ccc23)c2c(c1)N(C)C(=O)C(C)(C)O2` (single isomer, unassigned) [Example 83B, 6-(1-hydroxyethyl)-2,2,4-trimethyl-8-(6-methyl-7-oxo-6,7-dihydro-1H-pyrrolo[2,3-c]pyridin-4-yl)-2H-1,4-benzoxazin-3(4H)-one], the IC50 against BRD4-BD2 and against BRD4-BD1 was at most 100 nM throughout.

Consider `Cn1cc(-c2cccc3c2OC(c2ccccc2)C(=O)N3)c2cc[nH]c2c1=O` (centres unmarked) [Example 1, 8-(6-methyl-7-oxo-6,7-dihydro-1H-pyrrolo[2,3-c]pyridin-4-yl)-2-phenyl-2H-1,4-benzoxazin-3(4H)-one], for which the IC50 at BRD4-BD2 and at BRD4-BD1 was at most 100 nM each time.

For `CC(C)C1Oc2c(cccc2-c2cn(C)c(=O)c3[nH]ccc23)NC1=O` (centres unmarked) [Example 2, 2-isopropyl-8-(6-methyl-7-oxo-6,7-dihydro-1H-pyrrolo[2,3-c]pyridin-4-yl)-2H-1,4-benzoxazin-3(4H)-one], the IC50 on BRD4-BD2 and at BRD4-BD1 was at most 100 nM each time.

In the case of `CC1Oc2c(cccc2-c2cn(C)c(=O)c3[nH]ccc23)NC1=O` (centres unmarked) [Example 3, 2-methyl-8-(6-methyl-7-oxo-6,7-dihydro-1H-pyrrolo[2,3-c]pyridin-4-yl)-2H-1,4-benzoxazin-3(4H)-one], the IC50 against BRD4-BD2 is at most 100 nM; against BRD4-BD1, 100 to 1000 nM.

The compound `COc1cc2c(c(-c3cn(C)c(=O)c4[nH]ccc34)c1)OC(C(C)C)C(=O)N2` (centres unmarked) [Example 9, 2-isopropyl-6-methoxy-8-(6-methyl-7-oxo-6,7-dihydro-1H-pyrrolo[2,3-c]pyridin-4-yl)-2H-1,4-benzoxazin-3(4H)-one] yielded an IC50 against BRD4-BD1 of at most 100 nM.

On to `COc1cc2c(c(-c3cn(C)c(=O)c4[nH]ccc34)c1)OC(C1CCCC1)C(=O)N2` (centres unmarked) [Example 35, 2-cyclopentyl-6-methoxy-8-(6-methyl-7-oxo-6,7-dihydro-1H-pyrrolo[2,3-c]pyridin-4-yl)-2H-1,4-benzoxazin-3(4H)-one], for which, at BRD4-BD1, the half-inhibitory concentration (IC50) is at most 100 nM.
